According to patent US12673954B2 (BRISTOL-MYERS SQUIBB COMPANY, priority 2021, dated 2026):
Read-outs that look alike come from different tables or passages of the source. Blank lines part the entries; values can stand above or below the molecule they belong to.

What was measured:
[1] = tested on: NF-κB pathway, THP1-Dual™ cells; experiment: STING reporter assay in THP1-Dual cells, NF-κB pathway (SEAP, QUANTI-Blue); format: cell-based, human; details: THP1-Dual cells, 10% human plasma, 20 hours, SEAP, 100% activation = 100 μM cGAMP, read-out: NFkB (EC50 μM)
Outline: (§1)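 Activation normalised between DMSO-only baseline and 100 μM cGAMP maximum, after 20 h compound exposure (starting at 100 μM final) at 37° C, 5% CO2. Supernatant SEAP (QUANTI-Blue, OD620) reports NF-κB; secreted luciferase (QUANTI-Luc, RLU at 5 min) reports IRF.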

[2] = tested on: IRF pathway, THP1-Dual™ cells; experiment: STING reporter assay in THP1-Dual cells, IRF pathway (Lucia luciferase, QUANTI-Luc); format: cell-based, human; details: THP1-Dual cells, 10% human plasma, 20 hours, Lucia luciferase, 100% activation = 100 μM cGAMP, read-out: IRF (EC50 μM)
Outline: as §1

Compound: O=C(OCc1cccc(CO)c1)c1cc(Cl)cc2cc(CNC(=O)c3cnn4cccnc34)oc12 [EXAMPLE 252, 3-(Hydroxymethyl)benzyl 5-chloro-2-((pyrazolo[1,5-a]pyrimidine-3-carboxamido)methyl)benzofuran-7-carboxylate]
- EC50 ([1]; Homo sapiens, THP1-Dual, 20 h): 5.4 µM
- EC50 ([2]; Homo sapiens, THP1-Dual, 20 h): 6.4 µM

Compound: CCOC(=O)c1c(C)ccc2cc(CNC(=O)c3cnn4cccnc34)oc12 [EXAMPLE 379, Ethyl 6-methyl-2-((pyrazolo[1,5-a]pyrimidine-3-carboxamido)methyl)benzofuran-7-carboxylate]
- EC50 ([1]; Homo sapiens, THP1-Dual, 20 h): 19 µM
- EC50 ([2]; Homo sapiens, THP1-Dual, 20 h): 13 µM

Compound: COC(=O)c1cc(Cl)cc2cc(CNC(=O)c3[nH]nc4cccnc34)oc12 [Example 49, Methyl 2-((2H-pyrazolo[4,3-b]pyridine-3-carboxamido)methyl)-5-chlorobenzofuran-7-carboxylate]
- EC50 ([1]; Homo sapiens, THP1-Dual, 20 h): 93 µM
- EC50 ([2]; Homo sapiens, THP1-Dual, 20 h): 71 µM

Compound: O=C(OC1CC(F)(F)C1)c1cc(F)cc2c(Cl)c(CNC(=O)c3cnn4cccnc34)oc12 [EXAMPLE 291, 3,3-Difluorocyclobutyl 3-chloro-5-fluoro-2-((pyrazolo[1,5-a]pyrimidine-3-carboxamido)methyl)benzofuran-7-carboxylate]
- EC50 ([1]; Homo sapiens, THP1-Dual, 20 h): 0.31 µM
- EC50 ([2]; Homo sapiens, THP1-Dual, 20 h): 0.34 µM

Compound: N#Cc1cc(C(=O)OCC(F)(F)F)c2oc(CNC(=O)c3cnn4cccnc34)cc2c1 [EXAMPLE 282, 2,2,2-Trifluoroethyl 5-cyano-2-((pyrazolo[1,5-a]pyrimidine-3-carboxamido)methyl)benzofuran-7-carboxylate]
- EC50 ([1]; Homo sapiens, THP1-Dual, 20 h): 12 µM
- EC50 ([2]; Homo sapiens, THP1-Dual, 20 h): 12 µM

Compound: CSC(=O)c1cc(C)cc2c(Cl)c(CNC(=O)c3cnn4cccnc34)oc12 [EXAMPLE 397]
- EC50 ([1]; Homo sapiens, THP1-Dual, 20 h): 0.47 µM
- EC50 ([2]; Homo sapiens, THP1-Dual, 20 h): 0.46 µM

Compound: CSC(=O)c1cc(F)cc2cc(CNC(=O)c3cnn4cccnc34)oc12 [EXAMPLE 382, S-Methyl 5-fluoro-2-((pyrazolo[1,5-a]pyrimidine-3-carboxamido)methyl)benzofuran-7-carbothioate]
- EC50 ([1]; Homo sapiens, THP1-Dual, 20 h): 1.1 µM
- EC50 ([2]; Homo sapiens, THP1-Dual, 20 h): 1.3 µM

Compound: COC(=O)c1cccc2cc(Cn3ccc4[nH]ncc4c3=O)oc12 [EXAMPLE 19, Methyl 2-({4-oxo-1H,4H,5H-pyrazolo[4,3-c]pyridin-5-yl}methyl)-1-benzofuran-7-carboxylate]
- EC50 ([1]; Homo sapiens, THP1-Dual, 20 h): 95 µM
- EC50 ([2]; Homo sapiens, THP1-Dual, 20 h): 47 µM

Compound: COC(=O)c1cc(C)cc2c(Br)c(CNC(=O)c3cnn4cccnc34)oc12 [EXAMPLE 121, Methyl 3-bromo-5-methyl-2-((pyrazolo[1,5-a]pyrimidine-3-carboxamido)methyl)benzofuran-7-carboxylate]
- EC50 ([1]; Homo sapiens, THP1-Dual, 20 h): 0.28 µM
- EC50 ([2]; Homo sapiens, THP1-Dual, 20 h): 0.4 µM

Compound: Cc1cc(C(=O)O[C@H](C)C(F)(F)F)c2oc(CNC(=O)c3cnn4cccnc34)cc2c1 [EXAMPLE 271, (R)-1,1,1-Trifluoropropan-2-yl 5-methyl-2-((pyrazolo[1,5-a]pyrimidine-3-carboxamido)methyl)-benzofuran-7-carboxylate]
- EC50 ([1]; Homo sapiens, THP1-Dual, 20 h): 0.91 µM
- EC50 ([2]; Homo sapiens, THP1-Dual, 20 h): 0.8 µM

Compound: Cc1cc(C(=O)OCC(F)(F)F)c2oc(Cn3cnc4ccncc4c3=O)cc2c1 [EXAMPLE 374, 2,2,2-Trifluoroethyl 5-methyl-2-((4-oxopyrido[4,3-d]pyrimidin-3(4H)-yl)methyl)benzofuran-7-carboxylate]
- EC50 ([1]; Homo sapiens, THP1-Dual, 20 h): 3.5 µM
- EC50 ([2]; Homo sapiens, THP1-Dual, 20 h): 4.3 µM

Compound: CC(OC(=O)c1cccc2cc(CNC(=O)c3cnn4cccnc34)oc12)C(F)(F)F (centres unmarked) [EXAMPLE 218, 1,1,1-Trifluoropropan-2-yl 2-((pyrazolo[1,5-a]pyrimidine-3-carboxamido)methyl)benzofuran-7-carboxylate]
- EC50 ([1]; Homo sapiens, THP1-Dual, 20 h): 4.4 µM
- EC50 ([2]; Homo sapiens, THP1-Dual, 20 h): 5.5 µM

Compound: CCOC(=O)c1cccc2cc(CN3CCc4ccncc4C3=O)oc12 [EXAMPLE 205, Ethyl 2-((1-oxo-3,4-dihydro-2,7-naphthyridin-2(1H)-yl)methyl)benzofuran-7-carboxylate]
- EC50 ([1]; Homo sapiens, THP1-Dual, 20 h): 9.9 µM
- EC50 ([2]; Homo sapiens, THP1-Dual, 20 h): 9.8 µM

Compound: N#CC1CC(OC(=O)c2cc(Cl)cc3cc(CNC(=O)c4cnn5cccnc45)oc23)C1 (centres unmarked) [EXAMPLE 241, 3-Cyanocyclobutyl 5-chloro-2-((pyrazolo[1,5-a]pyrimidine-3-carboxamido)methyl)benzofuran-7-carboxylate]
- EC50 ([1]; Homo sapiens, THP1-Dual, 20 h): 2.3 µM
- EC50 ([2]; Homo sapiens, THP1-Dual, 20 h): 2.3 µM

Compound: CC(F)(F)COC(=O)c1cccc2cc(CN3CCc4ccncc4C3=O)oc12 [EXAMPLE 212, 2,2-Difluoropropyl 2-((1-oxo-3,4-dihydro-2,7-naphthyridin-2(1H)-yl)methyl)benzofuran-7-carboxylate]
- EC50 ([1]; Homo sapiens, THP1-Dual, 20 h): 58 µM
- EC50 ([2]; Homo sapiens, THP1-Dual, 20 h): 52 µM

Compound: CC(OC(=O)c1cc(Cl)cc2cc(CNC(=O)c3cnn4cccnc34)oc12)C(F)(F)F (single isomer, unassigned) [EXAMPLE 329, 1,1,1-Trifluoropropan-2-yl 5-chloro-2-((pyrazolo[1,5-a]pyrimidine-3-carboxamido)methyl)benzofuran-7-carboxylate]
- EC50 [1]: 0.89 µM
- EC50 [2]: 0.88 µM

Other lines, results leading:

- EC50 ([1]; Homo sapiens, THP1-Dual, 20 h): 2.5 µM
- EC50 ([2]; Homo sapiens, THP1-Dual, 20 h): 2.7 µM
Compound: O=C(OCC(F)(F)F)c1c(F)ccc2cc(CNC(=O)c3cnn4cccnc34)oc12 [EXAMPLE 286, 2,2,2-Trifluoroethyl 6-fluoro-2-((pyrazolo[1,5-a]pyrimidine-3-carboxamido)methyl)benzofuran-7-carboxylate]

- EC50 ([1]; Homo sapiens, THP1-Dual, 20 h): 6.3 µM
- EC50 ([2]; Homo sapiens, THP1-Dual, 20 h): 9.6 µM
Compound: C[C@@H](OC(=O)c1c(F)c(F)cc2cc(CNC(=O)c3cnn4cccnc34)oc12)C(F)(F)F [EXAMPLE 284, (R)-1,1,1-Trifluoropropan-2-yl 5,6-difluoro-2-((pyrazolo[1,5-a]pyrimidine-3-carboxamido)methyl)benzofuran-7-carboxylate]

- EC50 ([1]; Homo sapiens, THP1-Dual, 20 h): 98 µM
- EC50 ([2]; Homo sapiens, THP1-Dual, 20 h): 96 µM
Compound: COC(=O)c1cccc2cc(CN3Cc4cccnc4C3=O)oc12 [EXAMPLE 1, Methyl 2-((7-oxo-5,7-dihydro-6H-pyrrolo[3,4-b]pyridin-6-yl)methyl)benzofuran-7-carboxylate]

- EC50 ([1]; Homo sapiens, THP1-Dual, 20 h): 1.1 µM
- EC50 ([2]; Homo sapiens, THP1-Dual, 20 h): 1.1 µM
Compound: O=C(OC1CCC1)c1cc(F)cc2cc(CNC(=O)c3cnn4cccnc34)oc12 [EXAMPLE 234, Cyclobutyl 5-fluoro-2-((pyrazolo[1,5-a]pyrimidine-3-carboxamido)methyl)benzofuran-7-carboxylate]

- EC50 ([1]; Homo sapiens, THP1-Dual, 20 h): 0.3 µM
- EC50 ([2]; Homo sapiens, THP1-Dual, 20 h): 0.4 µM
Compound: Cc1cc(C(=O)OCC(F)(F)F)c2oc(CNC(=O)c3cnn4cccnc34)cc2c1 [EXAMPLE 377, 2,2,2-Trifluoroethyl 5-methyl-2-((pyrazolo[1,5-a]pyrimidine-3-carboxamido)methyl)benzofuran-7-carboxylate]

- EC50 ([1]; Homo sapiens, THP1-Dual, 20 h): 0.26 µM
- EC50 ([2]; Homo sapiens, THP1-Dual, 20 h): 0.2 µM
Compound: COC(=O)c1cc(Cl)cc2c(Cl)c(CNC(=O)c3cnn4cccnc34)oc12 [EXAMPLE 112, Methyl 3,5-dichloro-2-((pyrazolo[1,5-a]pyrimidine-3-carboxamido)methyl)benzofuran-7-carboxylate]

- EC50 ([1]; Homo sapiens, THP1-Dual, 20 h): 2.3 µM
- EC50 ([2]; Homo sapiens, THP1-Dual, 20 h): 1.3 µM
Compound: COC(=O)c1cc(Cl)cc2cc(CNC(=O)c3cncc4c3ncn4C)oc12 [Example 69, Methyl 5-chloro-2-((3-methyl-3H-imidazo[4,5-c]pyridine-7-carboxamido)methyl)benzofuran-7-carboxylate]

- EC50 ([1]; Homo sapiens, THP1-Dual, 20 h): 3.6 µM
- EC50 ([2]; Homo sapiens, THP1-Dual, 20 h): 5.7 µM
Compound: COc1cc(C(=O)OC(C)C(F)(F)F)c2oc(CNC(=O)c3cnn4cccnc34)cc2c1 (single isomer, unassigned) [EXAMPLE 345, 1,1,1-Trifluoropropan-2-yl 5-methoxy-2-((pyrazolo[1,5-a]pyrimidine-3-carboxamido)methyl)benzofuran-7-carboxylate]

- EC50 ([1]; Homo sapiens, THP1-Dual, 20 h): > 100 µM
- EC50 ([2]; Homo sapiens, THP1-Dual, 20 h): 90 µM
Compound: COc1ccn2ncc(C(=O)NCc3cc4cc(Cl)cc(C(=O)O)c4o3)c2n1 [EXAMPLE 139, 5-Chloro-2-((5-methoxypyrazolo[1,5-a]pyrimidine-3-carboxamido)methyl)benzofuran-7-carboxylic acid]

- EC50 ([1]; Homo sapiens, THP1-Dual, 20 h): 14 µM
- EC50 ([2]; Homo sapiens, THP1-Dual, 20 h): 13 µM
Compound: COC(=O)c1cccc2cc(CN3Cc4ccnc(F)c4C3=O)oc12 [EXAMPLE 4, Methyl 2-((4-fluoro-3-oxo-1,3-dihydro-2H-pyrrolo[3,4-c]pyridin-2-yl)methyl)benzofuran-7-carboxylate]

- EC50 ([1]; Homo sapiens, THP1-Dual, 20 h): 25 µM
- EC50 ([2]; Homo sapiens, THP1-Dual, 20 h): 30 µM
Compound: CCOC(OC(=O)c1cccc2cc(CN3CCc4ccncc4C3=O)oc12)C(F)(F)F (racemic) [EXAMPLE 210, 1-Ethoxy-2,2,2-trifluoroethyl 2-((1-oxo-3,4-dihydro-2,7-naphthyridin-2(1H)-yl)methyl)benzofuran-7-carboxylate]

- EC50 ([1]; Homo sapiens, THP1-Dual, 20 h): 37 µM
- EC50 ([2]; Homo sapiens, THP1-Dual, 20 h): 30 µM
Compound: Cc1cc(C(=O)NO)c2oc(CNC(=O)c3cnn4cccnc34)c(Cl)c2c1 [EXAMPLE 407, N-((3-chloro-7-(hydroxycarbamoyl)-5-methylbenzofuran-2-yl)methyl)pyrazolo[1,5-a]pyrimidine-3-carboxamide]

- EC50 ([1]; Homo sapiens, THP1-Dual, 20 h): 2.8 µM
- EC50 ([2]; Homo sapiens, THP1-Dual, 20 h): 2.5 µM
Compound: O=C(OCC(F)(F)F)c1cc(Cl)cc2cc(Cn3cnc4ccncc4c3=O)oc12 [EXAMPLE 371, 2,2,2-Trifluoroethyl 5-chloro-2-((4-oxopyrido[4,3-d]pyrimidin-3(4H)-yl)methyl)benzofuran-7-carboxylate]

- EC50 ([1]; Homo sapiens, THP1-Dual, 20 h): 17 µM
- EC50 ([2]; Homo sapiens, THP1-Dual, 20 h): 1.2 µM
Compound: COC(=O)c1cc(Cl)cc2cc(CNC(=O)c3cncc4scnc34)oc12 [Example 72, Methyl 5-chloro-2-((thiazolo[5,4-c]pyridine-7-carboxamido)methyl)benzofuran-7-carboxylate]

- EC50 ([1]; Homo sapiens, THP1-Dual, 20 h): 1.2 µM
- EC50 ([2]; Homo sapiens, THP1-Dual, 20 h): 1.2 µM
Compound: O=C(OC(CF)CF)c1cc(F)cc2cc(CNC(=O)c3cnn4cccnc34)oc12 [EXAMPLE 237, 1,3-Difluoropropan-2-yl 5-fluoro-2-((pyrazolo[1,5-a]pyrimidine-3-carboxamido)methyl)benzofuran-7-carboxylate]
